Structures are written as SMILES. Numbered stars: 1 amine (or outer) side, 2 acyl side, 3 side chain; on linkers, the order of the positions; unused ones are H or OH. Bridge positions count the residues as written; N and C are the ends. Square brackets hold non-standard residues; d marks the D form. Peptide text beside a SMILES is read from it. I, II: the chains in the order shown. Diglycolyl = O=C(COCC(=O)[*:2])[*:1]; NMeR = CN[C@@H](CCCNC(=N)N)C(=O)O; Pen = CC(C)(S)[C@H](N)C(=O)O A value given as a limit tells only on which side of the number the result lay.

We go through 3 molecules from patent US9809623B2, “α4β7 peptide monomer and dimer antagonists” (Protagonist Therapeutics, Inc., priority 2014, dated 2017).

The nature of one data set: Plasma Stability Assay. The class given is in vitro ADME. As to conditions: rat, Table 4-C, t1/2. The method, then:
0.5 mL of rat plasma (one tube per peptide, volume depends on how many time points are to be collected, 50 μL per time point) was added to each well of a 96-well polypropylene plate, and the tubes were incubated in a heated water bath, preset to 37° C. with gentle shaking. 1 μL of 10 mM peptide stock solution was added to each tub, and then 200 μL of Acetonitrile w/0.1% Formic Acid was added to each tube (1:4). Samples were collected at the following time points: 0, 10, 30, 45, 60, 120, 180 mins. When all time points were collected, the plate was centrifuged at 5000 rpm for 5 mins. LCM analysis was performed by pipetting 100 μL of each sample to appropriate well of a 96-well deep plate. 100 μL of an internal standard peptide (1 ug/mL) was added in Mobile Phase A to each well. The plate was vortexed and injected

The nature of data set [1]: Simulated Gastric Fluid (SGF) Assay. The format is in vitro ADME. As to conditions: pig, simulated gastric fluid (SGF) with porcine pepsin, pH 2; Table 4-C, t1/2. The essentials:
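Peptides at 20 μM final in simulated gastric fluid (NaCl, porcine pepsin, HCl; pH 2) at 37° C with shaking. Samples taken at 0, 15, 30 and 60 min, quenched in acetonitrile/0.1% formic acid and quantified by LC-MS/MS against internal standard, relative to time 0. Half-life from first-order exponential decay fit.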

In the next data set the target is T1, α4β7 (Mus musculus, UniProt P26011+Q00651).
T1 construct: host or cells: TK1 mouse T cells
As to the kind of experiment: α4β7 Cell Adhesion Assay (Mouse), TK1 cells. The format is cell-based. As to conditions: Table 4-B; read-out: Cell Adhesion α4β7 Mouse IC50. The essentials:
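Mouse TK1 cells in DMEM with 0.1% BSA, 10 mM HEPES pH 7 and 1 mM MnCl2 were allowed to adhere for 30-45 min at 37 °C to plates coated with recombinant human MAdCAM-1 Fc (200 ng/well) in the presence of serially diluted peptides. Adherent cells were quantified by MTT absorbance at 570 nm, with no-cell background subtracted for dose response.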

The nature of data set [2]: Dithiothreitol (DTT) Redox Stability Assay. The format is physicochemical. As to conditions: Table 4-C, t1/2, 0.5 mM DTT. The essentials:
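Peptide at 50 μM final in 100 mM Tris-Cl pH 7.5 was exposed to 0.5 mM DTT at room temperature. Aliquots taken at 20, 40, 80 and 120 min were quenched with acetic acid and analysed by reverse-phase HPLC at 220 nm for remaining oxidized parent. Half-lives were obtained by first-order exponential decay fit.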

T1 sequence (Q00651 34-1039 limits assumed): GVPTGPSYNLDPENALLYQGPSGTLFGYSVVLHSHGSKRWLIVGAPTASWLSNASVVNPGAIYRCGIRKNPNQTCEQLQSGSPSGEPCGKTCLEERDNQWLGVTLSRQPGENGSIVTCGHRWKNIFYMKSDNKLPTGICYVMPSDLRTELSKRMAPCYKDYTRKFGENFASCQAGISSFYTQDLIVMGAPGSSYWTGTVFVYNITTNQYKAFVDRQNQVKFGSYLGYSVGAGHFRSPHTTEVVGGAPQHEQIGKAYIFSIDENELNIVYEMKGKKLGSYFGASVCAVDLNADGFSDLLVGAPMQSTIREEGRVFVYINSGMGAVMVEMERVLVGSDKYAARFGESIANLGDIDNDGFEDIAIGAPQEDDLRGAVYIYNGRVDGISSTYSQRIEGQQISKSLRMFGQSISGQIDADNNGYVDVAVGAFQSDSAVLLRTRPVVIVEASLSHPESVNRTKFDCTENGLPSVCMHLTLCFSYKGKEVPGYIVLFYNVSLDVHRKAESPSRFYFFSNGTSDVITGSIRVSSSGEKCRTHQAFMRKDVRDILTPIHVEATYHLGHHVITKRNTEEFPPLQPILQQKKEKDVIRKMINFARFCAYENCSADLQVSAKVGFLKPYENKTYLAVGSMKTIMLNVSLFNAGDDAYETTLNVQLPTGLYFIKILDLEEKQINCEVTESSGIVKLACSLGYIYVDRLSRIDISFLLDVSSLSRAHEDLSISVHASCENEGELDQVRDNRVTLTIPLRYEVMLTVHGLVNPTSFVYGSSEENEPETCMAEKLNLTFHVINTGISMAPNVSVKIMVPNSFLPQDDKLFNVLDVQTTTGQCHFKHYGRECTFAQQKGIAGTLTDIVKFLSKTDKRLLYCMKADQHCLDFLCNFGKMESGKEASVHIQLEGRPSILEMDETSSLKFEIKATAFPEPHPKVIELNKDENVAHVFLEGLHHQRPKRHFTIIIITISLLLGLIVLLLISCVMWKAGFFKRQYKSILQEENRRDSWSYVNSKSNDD
T1 sequence (P26011 20-806): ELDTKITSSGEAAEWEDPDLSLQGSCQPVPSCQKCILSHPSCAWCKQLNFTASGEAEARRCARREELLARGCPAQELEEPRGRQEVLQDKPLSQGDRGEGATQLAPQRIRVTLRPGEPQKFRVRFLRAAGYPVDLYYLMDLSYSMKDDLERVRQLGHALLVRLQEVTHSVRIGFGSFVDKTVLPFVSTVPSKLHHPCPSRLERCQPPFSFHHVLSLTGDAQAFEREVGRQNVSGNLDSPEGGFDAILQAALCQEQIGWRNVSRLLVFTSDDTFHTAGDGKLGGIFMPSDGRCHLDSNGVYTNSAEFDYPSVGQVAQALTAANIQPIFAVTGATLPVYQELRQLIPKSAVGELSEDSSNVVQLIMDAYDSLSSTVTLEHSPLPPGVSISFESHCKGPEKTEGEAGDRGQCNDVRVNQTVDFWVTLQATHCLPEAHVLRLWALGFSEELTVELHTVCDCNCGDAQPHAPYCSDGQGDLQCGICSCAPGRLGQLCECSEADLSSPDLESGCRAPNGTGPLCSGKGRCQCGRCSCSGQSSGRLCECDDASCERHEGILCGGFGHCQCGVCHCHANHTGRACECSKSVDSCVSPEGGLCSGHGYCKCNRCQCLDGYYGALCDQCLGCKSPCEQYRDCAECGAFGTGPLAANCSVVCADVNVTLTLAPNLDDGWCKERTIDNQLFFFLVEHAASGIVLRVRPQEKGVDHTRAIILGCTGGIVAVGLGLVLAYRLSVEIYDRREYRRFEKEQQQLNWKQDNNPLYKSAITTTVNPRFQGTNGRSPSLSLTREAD

For orientation: half-life means the time in which the quantity being followed falls by half. Low readings indicate fast loss, high ones slow loss. Broadly, the IC50 is the point on the concentration scale where inhibition reaches its midpoint. Regarding `CC(=O)N[C@@H]1C(=O)N(C)[C@@H](CCCNC(=N)N)C(=O)N[C@@H](CO)C(=O)N[C@@H](CC(=O)O)C(=O)N[C@@H]([C@@H](C)O)C(=O)N[C@@H](CC(C)C)C(=O)N[C@H](C(=O)N[C@@H](Cc2c[nH]c3ccccc23)C(=O)N[C@H](CCC(=O)O)C(=O)N[C@H](CCCCNC(=O)COCC(=O)NCCCC[C@@H](NC(=O)[C@@H](CCC(=O)O)NC(=O)[C@H](Cc2c[nH]c3ccccc23)NC(=O)[C@H]2NC(=O)[C@H](CC(C)C)NC(=O)[C@H]([C@@H](C)O)NC(=O)[C@H](CC(=O)O)NC(=O)[C@H](CO)NC(=O)[C@H](CCCNC(=N)N)N(C)C(=O)[C@@H](NC(C)=O)C(C)(C)SSC2(C)C)C(=O)O)C(=O)O)C(C)(C)SSC1(C)C` [compound 216, (Ac-Pen-N-Me-R-S-D-T-L-Pen-W-e-k-OH)2-DIG] (I: Ac-[Pen][NMeR]SDTL[Pen]W[dE][dK]-OH / II: Ac-[Pen][NMeR]SDTL[Pen]W[dE][dK]-OH; disulfide I:1-I:7, II:1-II:7 (inferred); linker I:10-II:10 via Diglycolyl (inferred)), the results for the half-life at 20 μM (in the data set “Plasma Stability Assay”; in data set [1]) were above 3 h and above 6 h, respectively. The IC50 on α4β7 is 1 nM.
For the molecule `CC(=O)N[C@H]1CSSC(C)(C)[C@@H](C(=O)N[C@@H](Cc2c[nH]c3ccccc23)C(=O)N[C@H](CCCCNC(=O)COCC(=O)NCCCC[C@@H](NC(=O)[C@H](Cc2c[nH]c3ccccc23)NC(=O)[C@H]2NC(=O)[C@H](CC(C)C)NC(=O)[C@H]([C@@H](C)O)NC(=O)[C@H](CC(=O)O)NC(=O)[C@H](CO)NC(=O)[C@H](CCCNC(=N)N)N(C)C(=O)[C@@H](NC(C)=O)CSSC2(C)C)C(N)=O)C(N)=O)NC(=O)[C@H](CC(C)C)NC(=O)[C@H]([C@@H](C)O)NC(=O)[C@H](CC(=O)O)NC(=O)[C@H](CO)NC(=O)[C@H](CCCNC(=N)N)N(C)C1=O` [compound 204, (Ac-C-N-Me-R-S-D-T-L-Pen-W-k-NH2)2-DIG] (I: Ac-C[NMeR]SDTL[Pen]W[dK]-NH2 / II: Ac-C[NMeR]SDTL[Pen]W[dK]-NH2; disulfide I:1-I:7, II:1-II:7 (inferred); linker I:9-II:9 via Diglycolyl (inferred)), the half-life at 20 μM (in “Plasma Stability Assay”; in data set [1]) was above 6 h throughout. For the same molecule, the “DTT Min” value in data set [2] was 27 min.
With `CC(=O)N[C@H]1CSSC[C@@H](C(=O)NCC(=O)N[C@@H](CCC(=O)O)C(=O)N[C@@H](CCCCNC(=O)COCC(=O)NCCCC[C@H](NC(=O)[C@H](CCC(=O)O)NC(=O)CNC(=O)[C@@H]2CSSC[C@H](NC(C)=O)C(=O)N(C)[C@@H](CCCNC(=N)N)C(=O)N[C@@H](CO)C(=O)N[C@@H](CC(=O)O)C(=O)N[C@@H]([C@@H](C)O)C(=O)N[C@@H](CC(C)C)C(=O)N2)C(=O)O)C(=O)O)NC(=O)[C@H](CC(C)C)NC(=O)[C@H]([C@@H](C)O)NC(=O)[C@H](CC(=O)O)NC(=O)[C@H](CO)NC(=O)[C@H](CCCNC(=N)N)N(C)C1=O` [compound 201, (Ac-C-N-Me-R-S-D-T-L-C-G-E-K-OH)2-DIG] (I: Ac-C[NMeR]SDTLCGEK-OH / II: Ac-C[NMeR]SDTLCGEK-OH; disulfide I:1-I:7, II:1-II:7 (inferred); linker I:10-II:10 via Diglycolyl (inferred)), the half-life at 20 μM was 2.02 h in the data set “Plasma Stability Assay” and above 6 h in data set [1].
